Data taken from the NIST ThermoML archive (doi:10.1021/je3013638).

Settings: Liquid, Closed cell (Static) method

Nc1cc(Cl)cc(Cl)c1 [3,5-dichloroaniline]
Settings | vapor or sublimation pressure [kPa]
446.6 K | 10.25
453.88 K | 12.95
457.69 K | 14.44
463.14 K | 16.64
464.4 K | 17.2
466.41 K | 18.21
468.53 K | 19.57
469.09 K | 19.87
470.18 K | 20.2
473.66 K | 22.16
474.48 K | 23.01
475.29 K | 23.48
477.65 K | 24.67
481.31 K | 27.19
484.05 K | 29.6
487.88 K | 32.05
490.85 K | 35.09
492.54 K | 36.63
495.3 K | 38.71
497.31 K | 41.11
500.72 K | 44.06
503.96 K | 47.64
507.34 K | 51.52
509.76 K | 55.17
512.08 K | 58.05
513.94 K | 60.01
516.09 K | 63.13
518.15 K | 66.66
519.82 K | 68.55
521.75 K | 71.6
523.61 K | 75.31
525.72 K | 78.65
528.31 K | 82.54
530.51 K | 87.17
532.9 K | 91.08
534.94 K | 95.84
